Assay results as given in patent publication US8580806B2, “Salts of 4-methyl N-[3-(4-methyl-imidazol-1-yl)-5-trifluoromethyl-phenyl]-3-(4-pyridin-3-yl-pyrimidin-2-ylamino)-benzamide” (Novartis AG, priority 2005, dated 2013).

Columns and labels:
[1] = Intrinsic Dissolution Rate (rotating disk method); format: physicochemical; details: 37° C., 200 rpm
Protocol: Intrinsic Dissolution Rate (IDR): Dissolution rate measurements were performed at 37° C. using the rotating disk method (VanKell Instrument). A single rotation speed of 200 rpm was used. For IDR in 0.1 N HCl, an 800 mL volume, and for IDE in water, a 200 mL volume were used. The solution was continuously pumped through a UV measuring cell and recycled to the dissolution vessel.

[2] = Stability of solutions or suspensions (Table 15); format: physicochemical
[3] = pKa values of the free base; format: physicochemical; details: two values
Protocol: In a second step of the present inventive method, the 4-methyl-N-[3-(4-methyl-imidazol-1-yl)-5-trifluoromethyl-phenyl]-3-(4-pyridin-3-yl-pyrimidin-2-ylamino)-benzamide free base is treated with an appropriate acid of the formula HB. […] Suitable acids include, without limitation, inorganic acids such as hydrochloric acid, phosphoric acid, sulfuric acid, and sulfonic acid and organic acids such as methane sulfonic acid, ethane sulfonic acid, benzene sulfonic acid, p-toluene sulfonic acid, citric acid, fumaric acid, gentisic acid, malonic acid, maleic acid, and tartaric acid.

[4] = pH 3.0 buffer, ambient temperature, at least 20 hours; listed as Control - free base form B
Protocol: The solubility of the salts of the invention was determined in pH 6.8, pH 3.0 and pH 1.0 buffers by suspending 1-5 mg of each salt in 10 mL of corresponding aqueous solution. The samples were allowed to equilibrate at ambient temperature for at least 20 hours for pH 6.8 and 3.0 or about 5 hours for pH 1.0. The supernatant was filtered and used for the solubility determination by UV-VIS spectroscopy.

[5] = Solid state stability: heat, humidity, xenon light (Table 15); format: physicochemical
[6] = Hygroscopicity by TGA after one day at ambient temperature and 93% relative humidity; format: physicochemical; details: ambient temperature, listed as Control - free base form B
Protocol: The hygroscopicity of the salts of the invention was determined by TGA after one day at ambient temperature and 93% relative humidity.

[7] = pH of 1% solution or suspension in water; format: physicochemical; details: 1% in water; listed as Free base form B
[8] = 0.1% solutions or suspensions, 1 week at 80° C., Acetonitrile
[9] = 0.1% solutions or suspensions, 1 week at 80° C., Ethanol
[10] = 0.1% solutions or suspensions, 1 week at 80° C., Methanol
[11] = 0.1% solutions or suspensions, 1 week at 80° C., Water (pH measured: 4.74; pH measured for HCl salt: 4.22)
[12] = 0.1% solutions or suspensions, 1 week at 80° C., pH 1 (pH measured: 1.26)
[13] = 0.1% solutions or suspensions, 1 week at 80° C., pH 2 (pH measured: 2.00)
[14] = 0.1% solutions or suspensions, 1 week at 80° C., pH 3 (pH measured: 2.94)
[15] = 0.1% solutions or suspensions, 1 week at 80° C., pH 5 (pH measured: 5.01)
[16] = 0.1% solutions or suspensions, 1 week at 80° C., pH 7 (pH measured: 6.02)
[17] = 0.1% solutions or suspensions, 1 week at 80° C., pH 9 (pH measured: 8.92)
[18] = 0.1% solutions or suspensions, 1 week at 80° C., pH 11 (pH measured: 10.86)
[19] = 0.1% solutions or suspensions, PH 1, 1 week @ 50° C.
[20] = 2% solutions or suspensions, 1 day at room temperature, 0.5% CMC
[21] = 2% solutions or suspensions, 1 day at room temperature, 0.5% HPMC cellulose 4000
[22] = 2% solutions or suspensions, 1 day at room temperature, 0.8% Tween 80
[23] = 5% solutions in DMSO, 1 day at room temperature, 1:100 dilution in pH 6.8 buffer
[24] = Solid state, 1 week 80° C., 75% relative humidity, 30% in mixture 1
[25] = Solid state, 1 week 80° C., 75% relative humidity, 30% in mixture 2
[26] = Solid state, 1 week 80° C., 75% relative humidity, Bulk (HPLC)
[27] = Solid state, 1 week 80° C., tight container, 30% in mixture 1
[28] = Solid state, 1 week 80° C., tight container, 30% in mixture 2
[29] = Solid state, 1 week 80° C., tight container, Bulk (HPLC)
[30] = Xenon light (approximately 200 kLuxh), Bulk (HPLC)

Cc1cn(-c2cc(NC(=O)c3ccc(C)c(Nc4nccc(-c5cccnc5)n4)c3)cc(C(F)(F)F)c2)cn1 [Free base (form B), 4-methyl-N-[3-(4-methyl-imidazol-1-yl)-5-trifluoromethyl-phenyl]-3-(4-pyridin-3-yl-pyrimidin-2-ylamino)-benzamide]
Intrinsic dissolution rate ([1]; Water, listed as Free base form B): 0.0013 mg min^−1 cm^−2
Intrinsic dissolution rate ([1]; pH 1 (0.1N HCl)): 0.17 mg min^−1 cm^−2
Appearance [2, 8]: A*
Assay [2, 8]: 100.16
Assay [% area]: bracketed % area [2, 8]: 100.00 % area
Appearance [2, 9]: A*
Assay [2, 9]: 99.85
Assay [% area]: bracketed % area [2, 9]: 99.96 % area
Appearance [2, 10]: A*
Assay [2, 10]: 98.04
Assay [% area]: bracketed % area [2, 10]: 98.90 % area
Appearance [2, 11]: A↓
Assay [2, 11]: 101.93
Assay [% area]: bracketed % area [2, 11]: 100.00 % area
Appearance [2, 12]: A*
Assay [2, 12]: 50.22
Assay [% area]: bracketed % area [2, 12]: 45.31 % area
Appearance [2, 13]: B↓
Assay [2, 13]: 96.00
Assay [% area]: bracketed % area [2, 13]: 94.86 % area
Appearance [2, 14]: A↓
Assay [2, 14]: 102.19
Assay [% area]: bracketed % area [2, 14]: 100.00 % area
Appearance [2, 15]: A↓
Assay [2, 15]: 100.80
Assay [% area]: bracketed % area [2, 15]: 100.00 % area
Appearance [2, 16]: A↓
Assay [2, 16]: 100.14
Assay [% area]: bracketed % area [2, 16]: 100.00 % area
Appearance [2, 17]: A↓
Assay [2, 17]: 99.19
Assay [% area]: bracketed % area [2, 17]: 100.00 % area
Appearance [2, 18]: A↓
Assay [2, 18]: 100.50
Assay [% area]: bracketed % area [2, 18]: 100.00 % area
Appearance [2, 19]: A*
Assay [2, 19]: 94.01
Assay [% area]: bracketed % area [2, 19]: 93.44 % area
Appearance [2, 20]: A↓
Assay [2, 20]: 98.28
Assay [% area]: bracketed % area [2, 20]: 100.00 % area
Appearance [2, 21]: A↓
Assay [2, 21]: 98.27
Assay [% area]: bracketed % area [2, 21]: 100,00 % area
Appearance [2, 22]: A↓
Assay [2, 22]: 98.78
Assay [% area]: bracketed % area [2, 22]: 100.00 % area
Appearance [2, 23]: A↓
Assay [2, 23]: 96.98
Assay [% area]: bracketed % area [2, 23]: 100.00 % area
Assay ([2]; Unstressed): 100.99
Assay [% area]: bracketed % area ([2]; Unstressed): 100.00 % area
pKa [3]: 5.1
Solubility at pH 3.0 [4]: 2.8 μg/mL
Bulk (XRPD) ([5]; Solid state, 1 week 80° C., 75% relative humidity): No change
Assay [5, 24]: 99.38
Assay [% area]: bracketed % area [5, 24]: 100.00 % area
Assay [5, 25]: 89.37
Assay [% area]: bracketed % area [5, 25]: 96.02 % area
Assay [5, 26]: 99.97
Assay [% area]: bracketed % area [5, 26]: 100.00 % area
Bulk (XRPD) ([5]; Solid state, 1 week 80° C., tight container): No change
Assay [5, 27]: 100.11
Assay [% area]: bracketed % area [5, 27]: 100.00 % area
Assay [5, 28]: 94.28
Assay [% area]: bracketed % area [5, 28]: 97.75 % area
Assay [5, 29]: 99.77
Assay [% area]: bracketed % area [5, 29]: 100.00 % area
Bulk (XRPD) ([5]; Xenon light (approximately 200 kLuxh)): No change
Assay [5, 30]: 96.03
Assay [% area]: bracketed % area [5, 30]: 100.00 % area
% moisture gain [6]: 0.08%
pH of 1% solution or suspension in water [7]: 7.99
